Here are results for 22 molecules from patent US20260070911A1, “INHIBITORS OF TAM RECEPTORS” (National Health Research Institutes, priority 2022, published 2026).

Common to all, as to type: biochemical
For one experiment, the target named is T1, MERTK (Homo sapiens, UniProt Q12866).
T1 sequence (Q12866 21-999): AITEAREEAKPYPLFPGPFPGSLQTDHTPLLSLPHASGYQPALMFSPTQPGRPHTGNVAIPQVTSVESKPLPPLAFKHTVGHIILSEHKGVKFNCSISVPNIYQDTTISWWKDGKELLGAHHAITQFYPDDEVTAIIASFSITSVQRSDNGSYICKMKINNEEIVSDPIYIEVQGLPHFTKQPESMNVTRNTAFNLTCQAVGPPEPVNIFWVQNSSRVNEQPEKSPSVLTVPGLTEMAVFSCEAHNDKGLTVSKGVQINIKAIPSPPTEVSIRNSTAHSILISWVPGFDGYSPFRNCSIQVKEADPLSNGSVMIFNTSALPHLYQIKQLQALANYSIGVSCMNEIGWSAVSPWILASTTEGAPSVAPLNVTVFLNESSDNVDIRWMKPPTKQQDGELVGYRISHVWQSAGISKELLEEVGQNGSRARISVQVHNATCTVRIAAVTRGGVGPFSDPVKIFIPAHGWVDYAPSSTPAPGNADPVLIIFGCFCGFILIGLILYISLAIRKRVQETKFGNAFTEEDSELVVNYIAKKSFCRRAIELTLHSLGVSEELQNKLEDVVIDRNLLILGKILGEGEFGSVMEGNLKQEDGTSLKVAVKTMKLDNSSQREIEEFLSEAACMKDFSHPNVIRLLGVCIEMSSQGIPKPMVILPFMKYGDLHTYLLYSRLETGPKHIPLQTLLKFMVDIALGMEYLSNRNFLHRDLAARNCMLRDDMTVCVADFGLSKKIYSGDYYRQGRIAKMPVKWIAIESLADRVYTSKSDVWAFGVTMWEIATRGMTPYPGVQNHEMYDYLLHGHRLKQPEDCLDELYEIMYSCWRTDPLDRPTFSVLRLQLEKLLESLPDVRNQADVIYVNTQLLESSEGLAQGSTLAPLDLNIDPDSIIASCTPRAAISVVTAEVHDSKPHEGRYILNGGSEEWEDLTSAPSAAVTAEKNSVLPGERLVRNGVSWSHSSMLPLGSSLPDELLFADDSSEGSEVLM
Put plainly: MERTK enzymatic assay (Kinase Glo). The settings on record: purified kinase, ATP 12 μM, read-out: MER Enzymatic Inhibition (%). How it is done:
(§1) A purified kinase (AXL or MERTK) was incubated with a compound or DMSO (control) for 15 minutes in an assay buffer (25 mM Tri s pH 7.4, 10 mM MgCl2, 4 mM MnCl2, 2 mM DTT, 0.0100 BSA, 0.02% TritonX-100, 0.0100 Brij35 and 0.5 mM Na3VO4 for MERTK; and 40 mM Tri s pH 7.4, 20 mM MgCl2, 2 mM DTT, 0.01% BSA and 0.5 mM Na3VO4 for AXL). […] The mixture was incubated for 3 hours at 30° C. The luminescence was calculated to determine the kinase activity using a Kinase Glo assay kit for MERTK and an ADP-Glo Kinase Assay kit for AXL following the manufacture's instructions (Promega Corp., Madison, Wisconsin).
(§2) A study was conducted to compare exemplary compounds of formula (I) in inhibiting TAM activities, including MERTK, AXL, and TYRO3. An enzymatic assay was used in the study. A purified Kinase (i.e., MERTK, AXL, or TYRO3) was incubated with a compound or DMSO (control) for around 15 minutes in an assay buffer (25 mM Tris pH 7.4, 10 mM MgCl2, 4 mM MnCl2, 2 mM DTT, 0.01% BSA, 0.02% TritonX-100, 0.01% Brij35 and 0.5 mM Na3VO4 for MERTK; 40 mM Tris pH 7.4, 20 mM MgCl2, 2 mM DTT, 0.01% BSA and 0.5 mM Na3VO4 for AXL; and 25 mM Tris pH 7.4, 10 mM MgCl2, 4 mM MnCl2, 2 mM DTT, 0.01% BSA and 0.5 mM Na3VO4 for TYRO3). […] The mixture was incubated for 3 hours at 30° C. The luminescence was calculated to determine the kinase activity using a Kinase Glo assay kit for MERTK and an ADP-Glo Kinase assay kit for AXL and TYRO3 following the manufacture's instructions (Promega). Inhibition rates and half maximal inhibitory concentration (IC50) values were calculated. High percentage inhibition rates and low IC50 values are indicatives of high potency of the test compound.
(In general: Kinase-Glo reads ATP consumption through a luciferase reaction.)

A further experiment addresses T2, AXL (Homo sapiens, UniProt P30530).
T2 sequence (P30530 26-894): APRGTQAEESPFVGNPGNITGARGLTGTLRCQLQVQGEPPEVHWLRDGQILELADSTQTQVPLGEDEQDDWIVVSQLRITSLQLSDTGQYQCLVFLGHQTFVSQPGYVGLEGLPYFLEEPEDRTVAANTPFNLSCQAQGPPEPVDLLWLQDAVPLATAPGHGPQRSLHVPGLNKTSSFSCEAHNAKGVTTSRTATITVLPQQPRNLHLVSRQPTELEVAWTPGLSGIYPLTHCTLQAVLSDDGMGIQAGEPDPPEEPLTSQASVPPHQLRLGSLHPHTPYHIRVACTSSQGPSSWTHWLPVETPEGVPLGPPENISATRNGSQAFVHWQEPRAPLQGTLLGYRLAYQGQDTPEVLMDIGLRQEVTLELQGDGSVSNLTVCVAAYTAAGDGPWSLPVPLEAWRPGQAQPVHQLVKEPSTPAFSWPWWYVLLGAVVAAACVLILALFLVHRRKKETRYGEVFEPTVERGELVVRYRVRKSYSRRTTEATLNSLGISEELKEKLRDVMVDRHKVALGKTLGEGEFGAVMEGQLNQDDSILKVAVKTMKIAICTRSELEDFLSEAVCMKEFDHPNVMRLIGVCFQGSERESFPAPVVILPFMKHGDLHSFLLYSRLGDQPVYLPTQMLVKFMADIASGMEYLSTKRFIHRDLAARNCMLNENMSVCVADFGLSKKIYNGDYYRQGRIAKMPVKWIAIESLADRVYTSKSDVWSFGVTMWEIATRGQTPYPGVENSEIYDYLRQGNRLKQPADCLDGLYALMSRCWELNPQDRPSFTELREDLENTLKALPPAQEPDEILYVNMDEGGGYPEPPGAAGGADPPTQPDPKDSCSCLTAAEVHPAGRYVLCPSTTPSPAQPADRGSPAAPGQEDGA
As to the kind of experiment: AXL enzymatic assay (ADP-Glo). Conditions: purified kinase, ATP 50 μM, read-out: AXL Enzymatic Inhibition (%). The procedure: as §1, §2

The next experiment relates to MER/AXL. As to the kind of experiment: Dual MER/AXL inhibition (enzymatic). Conditions: class for both MER and AXL. The procedure: as §1

Take `CN1CCN(c2ccc(-c3c(-c4cnn(C)c4)oc4ncnc(Oc5ccc(NC(=O)c6cccn(-c7ccc(F)cc7)c6=O)cc5)c34)cc2)CC1` [Compound 34]: the IC50 on MERTK, at AXL and with MER/AXL was less than 20 nM throughout.
Take `CC(=O)Nc1cccc(-c2n[nH]c3ncnc(Oc4ccc(NC(=O)c5cccn(-c6ccc(F)cc6)c5=O)cc4)c23)c1` [Compound 35]: the results for the IC50 on MERTK, at AXL and in the experiment on MER/AXL were 100 to 50000 nM, 20 to 100 nM and 100 to 50000 nM, respectively.
Regarding `Nc1cccc(-c2n[nH]c3ncnc(Oc4ccc(NC(=O)c5cccn(-c6ccc(F)cc6)c5=O)cc4)c23)c1` [Compound 36], the IC50 lay within 100 to 50000 nM at MERTK, 20 to 100 nM at AXL and 100 to 50000 nM in the experiment with MER/AXL.
On to `CN1CCN(c2cccc(-c3c(-c4cnn(C)c4)oc4ncnc(Oc5ccc(NC(=O)c6cccn(-c7ccc(F)cc7)c6=O)cc5)c34)c2)CC1` [Compound 38], for which the IC50 on MERTK is 20 to 100 nM; at AXL, less than 20 nM; with MER/AXL, 20 to 100 nM.
As to `CC(=O)Nc1cccc(-c2c(-c3cn[nH]c3)oc3ncnc(Oc4ccc(NC(=O)c5cccn(-c6ccc(F)cc6)c5=O)cc4)c23)c1` [Compound 40], the IC50 at MERTK was 20 to 100 nM; at AXL, less than 20 nM; with MER/AXL, 20 to 100 nM.
Take `O=C(Nc1ccc(Oc2ncnc3ccsc23)cc1)c1cccn(-c2ccc(F)cc2)c1=O` [Compound 41]: the values for the IC50 at MERTK, on AXL and in the experiment on MER/AXL were 100 to 50000 nM, 20 to 100 nM and 100 to 50000 nM, respectively.
`O=C(Nc1ccc(Oc2ncnc3oc(-c4ccccc4)cc23)cc1)c1cccn(-c2ccc(F)cc2)c1=O` [Compound 42]: the IC50 on MERTK, on AXL and with MER/AXL was 100 to 50000 nM each time.
On to `CC(=O)Nc1cccc(-c2coc3ncnc(Oc4ccc(NC(=O)c5cccn(-c6ccc(F)cc6)c5=O)cc4)c23)c1` [Compound 47], for which the IC50 at MERTK fell in the range of 100 to 50000 nM; at AXL, 20 to 100 nM; with MER/AXL, 100 to 50000 nM.
Regarding `CC(=O)Nc1cccc(-c2c(C)oc3ncnc(Oc4ccc(NC(=O)c5cccn(-c6ccc(F)cc6)c5=O)cc4)c23)c1` [Compound 50], the results for the IC50 at MERTK, on AXL and with MER/AXL were 100 to 50000 nM, 20 to 100 nM and 100 to 50000 nM, respectively.
For the molecule `Cn1cc(-c2oc3ncnc(Oc4ccc(NC(=O)c5cccn(-c6ccc(F)cc6)c5=O)nc4)c3c2-c2cccc(N)c2)cn1` [Compound 52], the IC50 on MERTK is 20 to 100 nM; on AXL, less than 20 nM; with MER/AXL, 20 to 100 nM.
Take `CC(=O)Nc1cccc(-c2c(-c3cnn(C)c3)oc3ncnc(Oc4ccc(NC(=O)c5cccn(-c6ccc(F)cc6)c5=O)nc4)c23)c1` [Compound 53]: the IC50 on MERTK, at AXL and in the experiment with MER/AXL was 20 to 100 nM in each case.
Regarding `Cn1cc(-c2oc3ncnc(Oc4ccc(NC(=O)c5cccn(-c6ccccc6)c5=O)cc4)c3c2-c2cccc(N)c2)cn1` [Compound 54], the IC50 on MERTK was 20 to 100 nM; on AXL, less than 20 nM; in the experiment on MER/AXL it was 20 to 100 nM.
In the case of `Cn1cc(-c2oc3ncnc(Oc4ccc(NC(=O)c5cccn(-c6cccc(F)c6)c5=O)cc4)c3c2-c2cccc(N)c2)cn1` [Compound 55], the IC50 at MERTK is 20 to 100 nM; on AXL, less than 20 nM; with MER/AXL, 20 to 100 nM.
Regarding `CC(=O)Nc1cccc(-c2c(-c3cnn(C)c3)oc3ncnc(Oc4ccc(NC(=O)c5cccn(-c6ccccc6)c5=O)cc4)c23)c1` [Compound 56], the IC50 is 20 to 100 nM on MERTK, less than 20 nM on AXL and 20 to 100 nM in the experiment with MER/AXL.
On to `CC(=O)Nc1cccc(-c2c(-c3cnn(C)c3)oc3ncnc(Oc4ccc(NC(=O)c5cccn(-c6cccc(F)c6)c5=O)cc4)c23)c1` [Compound 57], for which the IC50 on MERTK was 100 to 50000 nM; on AXL, less than 20 nM; in the experiment with MER/AXL, 100 to 50000 nM.
As to `CC(=O)Nc1cccc(-c2c(-c3ccsc3)oc3ncnc(Oc4ccc(NC(=O)c5cccn(-c6ccc(F)cc6)c5=O)cc4)c23)c1` [Compound 59], the IC50 at MERTK was 100 to 50000 nM; at AXL it was less than 20 nM; with MER/AXL, 100 to 50000 nM.
Turning to `Cn1cc(-c2oc3ncnc(Oc4ccc(NC(=O)c5cccn(-c6ccc(F)cc6)c5=O)cc4)c3c2-c2cccc(NS(C)(=O)=O)c2)cn1` [Compound 60], the figures for the IC50 at MERTK, at AXL and with MER/AXL were 20 to 100 nM, less than 20 nM and 20 to 100 nM, respectively.
In the case of `Cn1cc(-c2oc3ncnc(Oc4ccc(NC(=O)c5cc6c(n(-c7ccccc7)c5=O)CCCC6=O)cc4)c3c2-c2cccc(N)c2)cn1` [Compound 61], the IC50 on MERTK was 20 to 100 nM; at AXL, less than 20 nM; in the experiment on MER/AXL it was 20 to 100 nM.
For the molecule `CC(=O)Nc1cccc(-c2c(-c3cnn(C)c3)oc3ncnc(Oc4ccc(NC(=O)c5cc6c(n(-c7ccccc7)c5=O)CCCC6=O)cc4)c23)c1` [Compound 62], the IC50 on MERTK is 100 to 50000 nM; at AXL, less than 20 nM; in the experiment with MER/AXL, 100 to 50000 nM.
In the case of `CN(C(=O)c1cccn(-c2ccc(F)cc2)c1=O)c1ccc(Oc2ncnc3oc(-c4cnn(C)c4)c(-c4cccc(N(C)S(C)(=O)=O)c4)c23)cc1` [Compound 64], the IC50 on MERTK, at AXL and in the experiment on MER/AXL was 100 to 50000 nM in each case.
As to `CN(c1cccc(-c2c(-c3cnn(C)c3)oc3ncnc(Oc4ccc(NC(=O)c5cccn(-c6ccc(F)cc6)c5=O)cc4)c23)c1)S(C)(=O)=O` [Compound 65], the IC50 fell in the range of 100 to 50000 nM at MERTK, 20 to 100 nM on AXL and 100 to 50000 nM in the experiment on MER/AXL.
For the molecule `Cn1cc(-c2oc3ncnc(Oc4ccc(NC(=O)c5cccn(C)c5=O)cc4)c3c2-c2cccc(N)c2)cn1` [Compound 66], the IC50 at MERTK, at AXL and in the experiment with MER/AXL was 100 to 50000 nM in each case.
